Values quoted from earlier work as cited in US20180267043A1, “USE OF BIOMARKERS FOR PREDICTING CLINICAL SENSITIVITY TO CANCER TREATMENT” (CELGENE CORPORATION, priority 2014, published 2018).

Tests used:
[1] = biological target: T1, CRBN (Homo sapiens, UniProt Q96SW2); details: in vitro; cited from earlier work
Target sequence in this assay (Q96SW2 whole entry): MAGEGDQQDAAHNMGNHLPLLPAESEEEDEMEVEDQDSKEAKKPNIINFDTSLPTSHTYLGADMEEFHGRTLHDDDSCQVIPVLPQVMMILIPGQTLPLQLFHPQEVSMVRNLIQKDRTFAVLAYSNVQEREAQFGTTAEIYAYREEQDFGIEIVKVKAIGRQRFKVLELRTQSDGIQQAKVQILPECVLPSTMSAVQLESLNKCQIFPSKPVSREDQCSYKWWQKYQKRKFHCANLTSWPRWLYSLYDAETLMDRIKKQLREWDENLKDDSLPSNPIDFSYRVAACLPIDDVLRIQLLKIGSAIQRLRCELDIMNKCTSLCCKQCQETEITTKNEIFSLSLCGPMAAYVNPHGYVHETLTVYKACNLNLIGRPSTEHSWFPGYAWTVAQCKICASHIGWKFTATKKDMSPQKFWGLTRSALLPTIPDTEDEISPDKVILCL
Target sequence in this assay (Q16531 whole entry partner): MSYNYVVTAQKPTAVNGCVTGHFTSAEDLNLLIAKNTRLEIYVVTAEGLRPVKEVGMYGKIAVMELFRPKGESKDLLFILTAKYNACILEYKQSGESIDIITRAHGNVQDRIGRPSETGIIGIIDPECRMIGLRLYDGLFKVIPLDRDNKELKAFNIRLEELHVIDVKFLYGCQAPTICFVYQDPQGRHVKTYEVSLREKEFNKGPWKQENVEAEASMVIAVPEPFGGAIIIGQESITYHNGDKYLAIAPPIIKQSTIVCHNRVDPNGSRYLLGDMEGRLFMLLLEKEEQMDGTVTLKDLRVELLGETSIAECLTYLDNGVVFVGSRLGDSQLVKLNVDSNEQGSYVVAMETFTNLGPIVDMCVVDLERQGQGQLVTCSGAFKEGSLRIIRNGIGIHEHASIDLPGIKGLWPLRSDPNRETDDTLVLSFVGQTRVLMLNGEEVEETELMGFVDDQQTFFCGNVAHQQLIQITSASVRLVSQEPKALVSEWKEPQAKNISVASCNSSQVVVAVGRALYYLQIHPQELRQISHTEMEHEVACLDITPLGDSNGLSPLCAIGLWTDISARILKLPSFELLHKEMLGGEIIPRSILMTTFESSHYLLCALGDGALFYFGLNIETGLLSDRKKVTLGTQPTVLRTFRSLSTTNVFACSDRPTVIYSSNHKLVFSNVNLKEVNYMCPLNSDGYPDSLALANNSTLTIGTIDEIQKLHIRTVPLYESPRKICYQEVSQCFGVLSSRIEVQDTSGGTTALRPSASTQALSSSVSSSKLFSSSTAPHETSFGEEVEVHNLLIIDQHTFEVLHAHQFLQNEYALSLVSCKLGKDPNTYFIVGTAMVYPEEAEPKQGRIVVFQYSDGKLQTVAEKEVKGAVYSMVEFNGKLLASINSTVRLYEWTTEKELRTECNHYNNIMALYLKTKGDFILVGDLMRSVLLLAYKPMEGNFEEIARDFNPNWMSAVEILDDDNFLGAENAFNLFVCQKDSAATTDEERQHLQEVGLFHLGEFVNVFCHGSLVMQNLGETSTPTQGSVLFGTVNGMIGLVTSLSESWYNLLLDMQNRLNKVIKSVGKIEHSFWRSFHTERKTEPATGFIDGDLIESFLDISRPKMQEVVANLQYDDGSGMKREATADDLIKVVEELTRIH
Target sequence in this assay (Q13619 whole entry partner): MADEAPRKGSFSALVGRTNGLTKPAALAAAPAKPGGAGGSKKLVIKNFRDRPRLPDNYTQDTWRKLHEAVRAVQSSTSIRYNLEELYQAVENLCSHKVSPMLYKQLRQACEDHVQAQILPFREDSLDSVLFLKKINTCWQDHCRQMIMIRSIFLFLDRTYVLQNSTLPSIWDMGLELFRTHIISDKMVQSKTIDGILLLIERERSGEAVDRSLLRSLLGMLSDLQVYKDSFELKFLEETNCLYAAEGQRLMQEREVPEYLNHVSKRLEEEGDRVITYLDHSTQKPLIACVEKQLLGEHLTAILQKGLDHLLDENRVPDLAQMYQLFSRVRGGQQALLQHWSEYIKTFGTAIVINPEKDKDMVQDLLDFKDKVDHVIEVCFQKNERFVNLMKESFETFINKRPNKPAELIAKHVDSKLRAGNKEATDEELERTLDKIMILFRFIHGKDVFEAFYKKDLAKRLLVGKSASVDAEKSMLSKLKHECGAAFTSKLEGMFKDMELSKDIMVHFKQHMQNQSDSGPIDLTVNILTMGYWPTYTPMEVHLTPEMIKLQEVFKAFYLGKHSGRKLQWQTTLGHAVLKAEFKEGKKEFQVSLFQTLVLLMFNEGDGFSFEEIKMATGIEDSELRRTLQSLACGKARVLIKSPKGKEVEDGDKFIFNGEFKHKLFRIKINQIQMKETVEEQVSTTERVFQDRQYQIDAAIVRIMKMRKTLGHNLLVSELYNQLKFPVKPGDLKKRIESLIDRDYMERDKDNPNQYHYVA
Target sequence in this assay (P62877 whole entry partner): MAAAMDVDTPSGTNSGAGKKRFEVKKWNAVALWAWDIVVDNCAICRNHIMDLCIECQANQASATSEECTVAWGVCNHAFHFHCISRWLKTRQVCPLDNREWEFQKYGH

[2] = tested on: CRBN; details: individual point mutants; cited from earlier work
[3] = biological target: T1, CRBN; details: Ito et al., Science 2010; cited from earlier work
Target sequence in this assay (Q96SW2 whole entry): as the sequence (Q96SW2 whole entry) above

[4] = biological target: CRBN (Homo sapiens, UniProt Q96SW2, W386A/Y384A); details: double mutant; cited from earlier work
Sequence of CRBN (Homo sapiens, UniProt Q96SW2, W386A/Y384A) (Q96SW2 whole entry Y384A/W386A): as the sequence (Q96SW2 whole entry) above, with Y384A, W386A counted along it

SMILES: O=C1CCC(N2C(=O)c3ccccc3C2=O)C(=O)N1 (stereo not shown) [thalidomide]
- Auto-ubiquitination of CRBN [1]: inhibit auto-ubiquitination of CRBN in vitro
- Binding to CRBN point mutants Y384A and W386A [2]: both defective for thalidomide binding
- Binding to CRBN [3]: binds to thalidomide
- Binding to CRBN double mutant (Y384A, W386A) [4]: lowest thalidomide-binding activity
